Source: publication PMC6934184, “Selective DNA-PKcs inhibition extends the therapeutic index of localized radiotherapy and chemotherapy” (The Journal of Clinical Investigation, 2019)

Target: T1, DYRK1B (Homo sapiens, UniProt Q9Y463)
T1 construct: purchased Thermo Fisher Scientific (Life Technologies) SelectScreen
Assay: SelectScreen Z'LYTE
Format: biochemical
Summary of the method: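 Percent values come from Thermo SelectScreen profiling of NU5455, combining activity and binding assays. CSF1R was run in Z'LYTE format at Km app ATP, and CAMK1 in Adapta format with ATP listed at 10.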

T1 sequence (Q9Y463 whole entry): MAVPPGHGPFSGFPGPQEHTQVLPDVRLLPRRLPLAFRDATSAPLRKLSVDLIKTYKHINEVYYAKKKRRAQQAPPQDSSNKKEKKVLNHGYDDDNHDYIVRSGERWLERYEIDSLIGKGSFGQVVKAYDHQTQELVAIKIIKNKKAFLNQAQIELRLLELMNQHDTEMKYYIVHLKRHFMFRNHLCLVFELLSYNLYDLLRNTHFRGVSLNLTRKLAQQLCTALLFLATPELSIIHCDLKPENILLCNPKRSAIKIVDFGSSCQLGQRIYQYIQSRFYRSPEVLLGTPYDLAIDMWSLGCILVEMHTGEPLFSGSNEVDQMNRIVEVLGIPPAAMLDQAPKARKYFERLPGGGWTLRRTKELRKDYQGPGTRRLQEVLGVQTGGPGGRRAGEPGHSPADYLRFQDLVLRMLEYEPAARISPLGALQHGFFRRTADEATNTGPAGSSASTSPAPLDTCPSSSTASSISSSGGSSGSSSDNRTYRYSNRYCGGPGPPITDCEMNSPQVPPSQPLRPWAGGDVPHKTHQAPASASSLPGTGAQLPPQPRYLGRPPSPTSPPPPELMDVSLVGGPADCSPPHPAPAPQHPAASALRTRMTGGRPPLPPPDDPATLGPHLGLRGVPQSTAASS

CN(C(=O)CN1CCOCC1)c1ccc2sc3c(-c4cccc5c(=O)cc(N6CC7CCC(C6)O7)oc45)cccc3c2c1 [NU5455]
inhibition at 1 µM: -1.8%
